Positions of bridges follow the written chain, without caps; N, C: chain ends. Residues, ends and D or L forms follow the SMILES beside them. rhodamine = not defined here
Tests used:
canonical Wnt signaling = experiment: Activity assay (Example 1): TOPflash luciferase reporter in HEK (HEK293-superTOPflash) cells, receptor not specified; format: cell-based, human; conditions: for effect of the peptide by itself on luciferase activity: without Wnt3a; for activity on the frizzled receptor: antagonist or agonist: model of Example 1
Procedure: (§1) Human embryonic kidney (HEK) cells were used for screening. These cells have a luciferase construct stably transfected into the genome (see FIG. 2A), such that when the frizzled receptor is activated and β-catenin is increased, the luciferase is activated by transcription and light can be measured.
(§2) The peptides were tested by transfecting the frizzled-1 or the frizzled-2 receptor and addition of UM206(S-S) to the cell culture. For testing antagonistic activity, UM206 was added and the natural ligand Wnt3a was added, which is a natural stimulus for the canonical pathway.
Transfection and Luciferase Measurement:
Plate cells in 12-well plates
(§3) Day 2: Transfection 12-Well Plates • heat Fugene6 and DNA 15 minutes at RT • 2 ml serum-free medium in tube • add 3 μl fugene • add 2 μg DNA • incubate 30 minutes at RT • wash with PBS • add 50 μl transfectiemix • add 1 ml antibiotica-free medium
(§4) Day 3: Add Conditioned Medium or UM206
(§5) Day 4: Luciferase Activity Measurements • remove medium • wash with PBS • add 500 μl ⅕ lysisbuffer • shake for 60 minutes • centrifuge in tube • 20 μl lysaat and 50 μl luciferase in new tube for measurement • vortex • measure
(§6) Three areas of high homology that contained two cysteines are underlined (UM207), (UM208) and (UM206). In FIGS. 9B through 9D, the inhibitory effect of these three peptides on Wnt3a-induced luciferase activity in HEK293-superTOPflash is shown. […] Again, the peptides by themselves had no effect on the luciferase activity.
(§7) The cell lines were cultured in 75 cm^2 culture flasks (Corning, Schiphol, the Netherlands) in Dulbeco's modified essential medium with L-glutamine (2 mM), 10% fetal calf serum (Invitrogen, Merelbeke, Belgium), and 1% gentamycin (Sigma-Aldrich, Zwijndrecht, The Netherlands). Before starting the experiment, the cell lines were treated with plasmocin 25 μg/ml (Invivogen, Toulose, France) and tested with a mycoalert mycoplasma detection kit (Lonza, Rockland Me., USA). Cells were transiently transfected with Fugene6 (Roche, Indianapolis Ind., USA) with plasmid DNA, pcDNA3.1/hygro (Invitrogen) with frizzled-1/2/4 or Wnts 3a-5a or with pcDNA3.0 (Invitrogen) containing the β-catenin or frizzled-5 sequence. After transfection, the cells were cultured for 24 hours in conditioned medium, collected from the cultured L-cells, L-cells with Wnt3a or 5a (Invitrogen). At the same moment the antagonist was added.
For the luciferase experiments not in HEK cells, the cells were additionally transfected with a TOPflash construct, eight TCF/LEF binding sites cloned into the pTA-Luc vector. Luciferase activity was measured using luciferase assay system (Promega, Madison Wis., USA).

frizzled-1 (rFzd-1) = target: T1, frizzled-1 (rFzd-1) (Rattus norvegicus, UniProt Q08463); experiment: Activity assay: luciferase reporter in HEK superTOPflash cells transfected with frizzled-1; format: cell-based; conditions: for block of Wnt3a-induced luciferase activity, rFzd-1: peptide 1.10^−8 M
T1 construct: expressed in transfected cells; host or cells: HEK293 superTOPflash (transient, Fugene6, pcDNA3.1/hygro)
T1 sequence (Q08463 69-641): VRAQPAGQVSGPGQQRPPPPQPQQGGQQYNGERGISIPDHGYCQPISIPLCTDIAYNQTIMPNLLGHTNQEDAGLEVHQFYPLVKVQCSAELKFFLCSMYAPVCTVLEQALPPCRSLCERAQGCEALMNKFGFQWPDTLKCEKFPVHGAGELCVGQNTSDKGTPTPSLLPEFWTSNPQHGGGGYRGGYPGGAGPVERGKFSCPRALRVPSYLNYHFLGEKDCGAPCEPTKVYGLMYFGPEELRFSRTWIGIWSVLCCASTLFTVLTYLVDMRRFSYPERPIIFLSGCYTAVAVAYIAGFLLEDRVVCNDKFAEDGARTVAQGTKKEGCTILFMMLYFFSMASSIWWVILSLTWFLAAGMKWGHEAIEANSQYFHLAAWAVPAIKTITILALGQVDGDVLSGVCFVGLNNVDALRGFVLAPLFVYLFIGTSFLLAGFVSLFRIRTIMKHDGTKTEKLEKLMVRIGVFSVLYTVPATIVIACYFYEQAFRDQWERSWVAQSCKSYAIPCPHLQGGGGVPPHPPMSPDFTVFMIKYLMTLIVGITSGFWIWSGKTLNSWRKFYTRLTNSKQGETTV
Procedure: as §1, §2, §3, §4, §5, §6
(§8) To determine the inhibitory constant of UM206-8, HEK293-superTOPflash cells were transfected with either rFzd-1 or -2 and incubated with Wnt3a (10^−9M) in the presence of increasing concentrations of either of the peptides (FIG. 15). For UM206, a biphasic inhibition curve was observed that was best fitted with a two-binding-state model.
as §7

frizzled-2 (rFzd-2) = target: T2, frizzled-2 (rFzd-2) (Rattus norvegicus, UniProt Q08464); experiment: Activity assay: luciferase reporter in HEK superTOPflash cells transfected with frizzled-2; format: cell-based; conditions: for block of Wnt3a-induced luciferase activity, rFzd-2: peptide 1.10^−8 M
T2 construct: expressed in transfected cells; host or cells: HEK293 superTOPflash (transient, Fugene6, pcDNA3.1/hygro)
T2 sequence (Q08464 29-570): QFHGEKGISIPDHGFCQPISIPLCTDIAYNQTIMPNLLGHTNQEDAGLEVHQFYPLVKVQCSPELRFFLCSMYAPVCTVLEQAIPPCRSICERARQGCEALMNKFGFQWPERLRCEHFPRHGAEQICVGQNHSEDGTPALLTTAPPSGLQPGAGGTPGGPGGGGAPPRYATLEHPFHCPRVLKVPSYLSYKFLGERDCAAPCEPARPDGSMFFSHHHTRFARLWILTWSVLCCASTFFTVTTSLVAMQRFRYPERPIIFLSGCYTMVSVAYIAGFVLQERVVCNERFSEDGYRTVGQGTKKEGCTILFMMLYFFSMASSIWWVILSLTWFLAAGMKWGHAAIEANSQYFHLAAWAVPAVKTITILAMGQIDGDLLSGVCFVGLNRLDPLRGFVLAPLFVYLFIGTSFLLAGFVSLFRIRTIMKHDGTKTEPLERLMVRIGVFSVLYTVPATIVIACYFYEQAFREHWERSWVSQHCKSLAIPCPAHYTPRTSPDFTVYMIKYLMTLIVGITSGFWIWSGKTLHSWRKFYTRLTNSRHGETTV
Procedure: as §1, §2, §3, §4, §5, §6, §8, §7

Fzd-1 and -2 = experiment: Binding of rhodamine-labeled UM206 to frozen sections of mouse kidney and small intestine and its blocking
Procedure: Specificity of the binding site was confirmed by prior incubation of the tissue sections with UM207 (1.10^−7 M) or recombinant Wnt3a (1.10^−8 M).
One-half of the hearts of the mice was embedded in paraffin and cut in 4 μm sections. The paraffin sections were rehydrated and washed in PBS. One section was stained with AZAN, allowing an accurate determination of the infarct size. To visualize the myofibroblasts in the infarct area, the sections were incubated with an antibody directed against α-smooth muscle actin (Sigma-Aldrich), followed by incubation with the peroxidase-conjugated secondary antibody (Vector laboratories). Nuclei were visualized by hematoxylin. Photos were taken with a Leica (CTR500, 63×/0.85) camera and analyzed with the Quantimet program (QWin/QGo). An examiner blinded to the groups of the animals obtained all measurements. For the experiments with Rhodamine-labeled UM206, frozen sections (4 μm) of mouse kidney and small intestine were used.

hFzd-4 = target: T3, hFzd-4 (Homo sapiens, UniProt Q9ULV1); experiment: Receptor specificity: luciferase in HEK293 superTOPflash cells overexpressing hFzd-4; format: cell-based; conditions: FIG. 3, Panel F
T3 construct: expressed in transfected cells; host or cells: HEK293 superTOPflash (transient, Fugene6, pcDNA3.1/hygro)
T3 sequence (Q9ULV1 37-537): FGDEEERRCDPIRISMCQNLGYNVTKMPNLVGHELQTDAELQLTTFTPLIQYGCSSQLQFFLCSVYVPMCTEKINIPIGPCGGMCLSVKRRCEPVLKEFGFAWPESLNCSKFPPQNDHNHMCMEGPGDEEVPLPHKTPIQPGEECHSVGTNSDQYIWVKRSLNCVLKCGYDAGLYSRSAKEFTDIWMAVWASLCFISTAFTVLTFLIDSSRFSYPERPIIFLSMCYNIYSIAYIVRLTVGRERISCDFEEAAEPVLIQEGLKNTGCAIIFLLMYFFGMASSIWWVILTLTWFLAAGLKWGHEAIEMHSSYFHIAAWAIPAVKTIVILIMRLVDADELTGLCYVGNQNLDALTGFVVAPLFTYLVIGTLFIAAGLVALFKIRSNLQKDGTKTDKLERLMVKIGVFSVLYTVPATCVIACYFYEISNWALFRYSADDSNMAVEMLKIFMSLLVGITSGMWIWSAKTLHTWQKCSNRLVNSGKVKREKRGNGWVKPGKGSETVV
Procedure: In FIG. 3, Panel E, the efficacy of UM206 to block the Wnt3a-induced activation of luciferase activity in HEK293 superTOPflash cells transfected with different Fzds is shown.
as §7

Row | block of Wnt3a-induced luciferase activity, rFzd-1 (frizzled-1 (rFzd-1)) | block of Wnt3a-induced luciferase activity, rFzd-2 (frizzled-2 (rFzd-2)) | Molecule | effect of the peptide by itself on luciferase activity (canonical Wnt signaling) | activity on the frizzled receptor: antagonist or agonist (canonical Wnt signaling) | further results
1 | – | – | CNVSSHGIDGCDL (listed as Homo sapiens) [peptide derived from the area of Wnt3a homologous to UM206] | – | – | antagonistic properties of UM206 analogues (canonical Wnt signaling; alanine scan and modifications, 1.10-9 M): potency was lower than that of UM206
2 | blocked almost completely | blocked almost completely | CC(=O)NCC(=O)N[C@@H](CO)C(=O)N[C@@H](CS)C(=O)N[C@@H](CO)C(=O)N[C@@H](CC(C)C)C(=O)N[C@@H](CCCCN)C(=O)N[C@H](C(=O)N[C@@H](CS)C(=O)N[C@@H](Cc1c[nH]c2ccccc12)C(=O)N[C@@H](CC(C)C)C(=O)N[C@@H](CCC(N)=O)C(=O)N[C@@H](CC(C)C)C(=O)N[C@@H](C)C(=O)N[C@@H](CC(=O)O)C(N)=O)[C@@H](C)O [UM208, GSCSLKTCWLQLAD] (Ac-GSCSLKTCWLQLAD-NH2) | none of the three peptides by itself could induce an increase in luciferase activity | – | –
3 | blocked almost completely | blocked almost completely | CC[C@H](C)[C@H](NC(=O)CNC(C)=O)C(=O)N[C@@H](CCCCN)C(=O)N[C@@H](CCC(=O)O)C(=O)N[C@@H](CS)C(=O)N[C@@H](CCC(N)=O)C(=O)N[C@@H](Cc1ccc(O)cc1)C(=O)N[C@@H](CCC(N)=O)C(=O)N[C@@H](Cc1ccccc1)C(=O)N[C@@H](CCCNC(=N)N)C(=O)N[C@@H](Cc1c[nH]cn1)C(=O)N[C@@H](CCCNC(=N)N)C(=O)N[C@@H](CCCNC(=N)N)C(=O)N[C@@H](Cc1c[nH]c2ccccc12)C(=O)N[C@@H](CC(N)=O)C(=O)N[C@@H](CS)C(=O)N[C@@H](CO)C(=O)N[C@H](C(=O)N[C@H](C(=O)N[C@@H](CC(=O)O)C(N)=O)C(C)C)[C@@H](C)O [UM207] (Ac-GIKECQYQFRHRRWNCSTVD-NH2) | none of the three peptides by itself could induce an increase in luciferase activity | potent antagonist | blocking of UM206-rhodamine binding by prior incubation (Fzd-1 and -2; UM206-rhodamine 1.10^−8 M, UM207 1.10^−7 M, Wnt3a 1.10^−8 M): completely abolished the binding of UM206-rhodamine
4 | – | – | UM206-rhodamine: UM206 with rhodamine attached to Lys^3 (Ac-CNK(rhodamine)TSEGMDGCEL-NH2; cysteine pairing not given here; reading uncertain) | – | – | effect of rhodamine attachment to Lys^3 on IC50 for blocking Wnt3a-induced luciferase expression (canonical Wnt signaling; HEK293 superTOPflash cells, not shown): did not affect its IC50 value; staining of tissue sections (Fzd-1 and -2; 1.10^−8 M, 15 minutes, two-foton microscopy): staining of tubular epithelium and panneth cells
5 | – | – | CSCC[C@@H]1NC(=O)CNC(=O)[C@H](CCC(=O)O)NC(=O)[C@H](CO)NC(=O)[C@H]([C@@H](C)O)NC(=O)[C@H](CCCCN)NC(=O)[C@H](CC(N)=O)NC(=O)[C@@H](NC(C)=O)CSSC[C@@H](C(=O)N[C@@H](CCC(=O)O)C(=O)N[C@@H](CC(C)C)C(N)=O)NC(=O)CNC(=O)[C@H](CC(=O)O)NC1=O [UM206(S-S)] (Ac-CNKTSEGMDGCEL-NH2; disulfide 1-11) | – | potent agonist | agonist activity at frizzled-1 (frizzled-1 (rFzd-1); FIG. 3, Panel F): specific agonist; agonist activity at frizzled-2 (frizzled-2 (rFzd-2); FIG. 3, Panel F): specific agonist; agonist activity at frizzled-4 (hFzd-4): not for frizzled-4 or frizzled-5

From patent publication US20150071856A1, “ANTAGONISTIC PEPTIDES FOR FRIZZLED-1 AND FRIZZLED-2” (Universiteit Maastricht, priority 2013, published 2015)
